Structures can show the parent of a compound that is named as a salt. Values belong to the molecule of their own block, whether it stands above or below them.
How the values were obtained:
interferon (α) = test: Cytokine Induction in Human Cells: interferon (α) secreted by PBMCs, ELISA; format: cell-based; settings: incubated 18 to 24 hours, lowest concentration found to induce interferon
Source text: (§1) An in vitro human blood cell system was used to assess cytokine induction by compounds of the invention. Activity is based on the measurement of interferon and tumor necrosis factor (α) (IFN and TNF, respectively) secreted into culture media as described by Testerman et. al. In “Cytokine Induction by the Immunomodulators Imiquimod and S-27609”, Journal of Leukocyte Biology, 58, 365–372 (September, 1995).
(§2) Whole blood is collected by venipuncture into EDTA vacutainer tubes from healthy human donors. Peripheral blood mononuclear cells (PBMCs) are separated from whole blood by density gradient centrifugation using Histopaque®-1077 (Sigma Chemicals, St. Louis, Mo.). The PBMCs are suspended at 3–4×10^6 cells/mL in RPMI 1640 medium containing 10% fetal bovine serum, 2 mM L-glutamine and 1% penicillin/streptomycin solution (RPMI complete). The PBMC suspension is added to 48 well flat bottom sterile tissue culture plates (Costar, Cambridge, Mass. or Becton Dickinson Labware, Lincoln Park, N.J.) containing an equal volume of RPMI complete media containing test compound.
(§3) The compounds are solubilized in dimethyl sulfoxide (DMSO). The DMSO concentration should not exceed a final concentration of 1% for addition to the culture wells.
(§4) The solution of test compound is added at 60 μM to the first well containing RPMI complete and serial (three fold or ten fold) dilutions are made. The PBMC suspension is then added to the wells in an equal volume, bringing the test compound concentrations to the desired range. The final concentration of PBMC suspension is 1.5–2×10^6 cells/mL. The plates are covered with sterile plastic lids, mixed gently and then incubated for 18 to 24 hours at 37° C. in a 5% carbon dioxide atmosphere.
(§5) Following incubation the plates are centrifuged for 5–10 minutes at 1000 rpm (˜200×g) at 4° C. The cell culture supernatant is removed with a sterile polypropylene pipette and transferred to sterile polypropylene tubes. Samples are maintained at −30 to −70° C. until analysis. The samples are analyzed for interferon (α) and tumor necrosis factor (α) by ELISA
Interferon (α) concentration is determined by ELISA using a Human Multi-Species kit from PBL Biomedical Laboratories, New Brunswick, N.J.
(§6) The table below lists the lowest concentration found to induce interferon and the lowest concentration found to induce tumor necrosis factor for each compound.

[1] = test system: tumor necrosis factor (α); test: Cytokine Induction in Human Cells: tumor necrosis factor (α) secreted by PBMCs, ELISA; format: cell-based; settings: incubated 18 to 24 hours, lowest concentration found to induce tumor necrosis factor
Source text: as §1, §2, §3, §4, §5
Tumor necrosis factor (α) (TNF) concentration is determined using ELISA kits available from Genzyme, Cambridge, Mass.; R&D Systems, Minneapolis, Minn.; or Pharmingen, San Diego, Calif.
as §6

- melting point: 110.2 °C (dec.)
SMILES: CCCCc1nc2c(N)nc3ccccc3c2n1CCCCNS(=O)(=O)c1cccc(N)c1 (as salt: hydrochloride)

- melting point: 176 to 178.2 °C
SMILES: CCCCc1nc2c(N)nc3ccccc3c2n1CCCCNS(=O)(=O)c1cccc([N+](=O)[O-])c1 (as salt: hydrochloride) [Example 7, N^1-[4-(4-Amino-2-butyl-1H-imidazo[4,5-c]quinolin-1-yl)butyl]-3-nitro-1-benzenesulfonamide Hydrochloride]

- melting point: 96 °C (dec.)
SMILES: CCCCc1nc2c(N)nc3ccccc3c2n1CCCCNS(=O)(=O)c1ccc([N+](=O)[O-])cc1 (as salt: hydrochloride) [Example 9, N^1-[4-(4-Amino-2-butyl-1H-imidazo[4,5-c]quinolin-1-yl)butyl]-4-nitro-1-benzenesulfonamide Hydrochloride]

- melting point: 203.1 to 205 °C
SMILES: CCCCc1nc2c(N)nc3ccccc3c2n1CCCCNS(=O)(=O)c1ccc(N)cc1 (as salt: hydrochloride) [Example 10, N^1-[4-(4-Amino-2-butyl-1H-imidazo[4,5-c]quinolin-1-yl)butyl]-4-amino-1-benzenesulfonamide Hydrochloride]

- melting point: > 250 °C
SMILES: Cc1nc2c(N)nc3c(c2n1CCCCNS(C)(=O)=O)CCCC3 (as salt: hydrochloride) [Example 263, N-[4-(4-amino-2-methyl-6,7,8,9-tetrahydro-1H-imidazo[4,5-c]quinolin-1-yl)butyl]methanesulfonamide hydrochloride]

- melting point: 223 to 224 °C
SMILES: CCCCc1nc2c(N)nc3ccccc3c2n1CCCCNS(=O)(=O)c1cccc2c(N(C)C)cccc12 [Example 1, N^1-[4-(4-Amino-2-butyl-1H-imidazo[4,5-c]quinolin-1-yl)butyl]-5-(dimethylamino)-1-naphthalenesulfonamide]

- melting point: 137.5 to 141.5 °C
SMILES: CCCCc1nc2c(N)nc3ccccc3c2n1CCCCNS(=O)(=O)c1cccs1 [Example 3, N^2-[4-(4-Amino-2-butyl-1H-imidazo[4,5-c]quinolin-1-yl)butyl]-2-thiophenesulfonamide]

- melting point: 197 to 199.5 °C
SMILES: CCCCc1nc2c(N)nc3ccccc3c2n1CCCCNS(=O)(=O)Cc1ccccc1 [Example 4, N-[4-(4-Amino-2-butyl-1H-imidazo[4,5-c]quinolin-1-yl)butyl]phenylmethanesulfonamide]

- melting point: 75.5 to 79 °C
SMILES: CCCCc1nc2c(N)nc3ccccc3c2n1CCCCNS(=O)(=O)c1ccccc1 [Example 5, N^1-[4-(4-Amino-2-butyl-1H-imidazo[4,5-c]quinolin-1-yl)butyl]-1-benzenesulfonamide]

SMILES: CCCCc1nc2c(N)nc3ccccc3c2n1CCCCNS(=O)(=O)c1cccc([N+](=O)[O-])c1 [Example 7, N^1-[4-(4-Amino-2-butyl-1H-imidazo[4,5-c]quinolin-1-yl)butyl]-3-nitro-1-benzenesulfonamide Hydrochloride]
- minimal effective concentration (interferon (α); Hydrochloride): 0.01 µM
- Lowest Effective Concentration (μM) Tumor Necrosis Factor ([1]; Hydrochloride): ** (no induction was seen at any of the tested concentrations (0.12, 0.37, 1.11, 3.33, 10 and 30 μM))

SMILES: CCCCc1nc2c(N)nc3ccccc3c2n1CCCCNS(=O)(=O)c1ccc([N+](=O)[O-])cc1 [Example 9, N^1-[4-(4-Amino-2-butyl-1H-imidazo[4,5-c]quinolin-1-yl)butyl]-4-nitro-1-benzenesulfonamide Hydrochloride]
- minimal effective concentration (interferon (α); Hydrochloride): 0.04 µM
- Lowest Effective Concentration (μM) Tumor Necrosis Factor ([1]; Hydrochloride): ** (no induction was seen at any of the tested concentrations (0.12, 0.37, 1.11, 3.33, 10 and 30 μM))

- melting point: 96 °C (dec.)
SMILES: CCCCc1nc2c(N)nc3ccccc3c2n1CCCCNS(=O)(=O)c1cccc2cnccc12 [Example 11, N^5-[4-(4-Amino-2-butyl-1H-imidazo[4,5-c]quinolin-1-yl)butyl]-5-isoquinolinesulfonamide]

- melting point: 78.1 to 79.5 °C
SMILES: COc1ccc(Cc2nc3c(N)nc4ccccc4c3n2CCCCNS(C)(=O)=O)cc1 [Example 12, N-[4-(4-Amino-2-(4-methoxybenzyl)-1H-imidazo[4,5-c]quinolin-1-yl]butyl]methanesulfonamide]

- melting point: 191 to 193 °C
SMILES: COCCc1nc2c(N)nc3c(c2n1CCCCNS(=O)(=O)c1ccc(F)cc1)CCCC3 [Example 14, N^1-{4-[4-Amino-2-(2-methoxyethyl)-6,7,8,9-tetrahydro-1H-imidazo[4,5-c]quinolin-1-yl]butyl}-4-fluoro-1-benzenesulfonamide]

- melting point: 214 to 216 °C
SMILES: Nc1nc2ccccc2c2c1nc(-c1ccccc1)n2CCCCNS(=O)(=O)c1ccc(F)cc1 [Example 15, N-[4-(4-Amino-2-phenyl-1H-imidazo[4,5-c]quinolin-1-yl)butyl]-4-fluoro-1-benzenesulfonamide]

- melting point: 234 to 235 °C
SMILES: CS(=O)(=O)NCCCCn1c(-c2ccccc2)nc2c(N)nc3ccccc3c21 [Example 16, N-[4-(4-Amino-2-phenyl-1H-imidazo[4,5-c]quinolin-1-yl)butyl]methanesulfonamide]

SMILES: CCCCc1nc2c(N)nc3ccccc3c2n1CCNS(C)(=O)=O [Example 34, N-[2-(4-Amino-2-butyl-1H-imidazo[4,5-c]quinolin-1-yl)ethyl]methanesulfonamide Trifluoroacetate]
- minimal effective concentration (interferon (α)): 0.04 µM
- minimal effective concentration [1]: 0.37 µM

SMILES: CCCCc1nc2c(N)nc3ccccc3c2n1CCNS(=O)(=O)C(F)(F)F [Example 35, N-[2-(4-Amino-2-butyl-1H-imidazo[4,5-c]quinolin-1-yl)ethyl]trifluoromethanesulfonamide Trifluoroacetate]
- minimal effective concentration (interferon (α)): 1.11 µM
- minimal effective concentration [1]: 10 µM

SMILES: CS(=O)(=O)NCCCCn1cnc2c(N)nc3c(c21)CCCC3 [Example 72, N-[4-(4-Amino-6,7,8,9-tetrahydro-1H-imidazo[4,5-c]quinolin-1-yl)butyl]methanesulfonamide Trifluoroacetate]
- minimal effective concentration (interferon (α)): 3.33 µM
- Lowest Effective Concentration (μM) Tumor Necrosis Factor [1]: ** (no induction was seen at any of the tested concentrations (0.12, 0.37, 1.11, 3.33, 10 and 30 μM))

SMILES: CCCCc1nc2c(N)nc3ccccc3c2n1CCCCNS(=O)(=O)C[C@@]12CC[C@@H](CC1=O)C2(C)C [Example 89]
- minimal effective concentration (interferon (α); PBMC): 0.001 µM
- minimal effective concentration ([1]; PBMC): 1 µM

SMILES: COCCc1nc2c(N)nc3c(c2n1CCCCNS(C)(=O)=O)CCCC3 [Example 214, N-[4-(4-Amino-6,7,8,9-tetrahydro-2-(2-methoxyethyl)-1H-imidazo[4,5-c]quinolin-1-yl)butyl]methanesulfonamide Trifluoroacetate]
- minimal effective concentration (interferon (α)): 0.01 µM
- minimal effective concentration [1]: 10 µM

SMILES: CCc1nc2c(N)nc3ccccc3c2n1CCCCNS(C)(=O)=O [Example 236, N-[4-(4-amino-2-ethyl-1H-imidazo[4,5-c]quinolin-1-yl)butyl]methanesulfonamide]
- minimal effective concentration (interferon (α); PBMC): 0.01 µM
- minimal effective concentration ([1]; PBMC): 0.12 µM

SMILES: CCCCCc1nc2c(N)nc3ccccc3c2n1CCCCNS(C)(=O)=O [Example 250, N-[4-(4-amino-2-pentyl-1H-imidazo[4,5-c]quinolin-1-yl)butyl]methanesulfonamide]
- minimal effective concentration (interferon (α); PBMC): 0.01 µM
- minimal effective concentration ([1]; PBMC): 0.12 µM

SMILES: CCCCCc1nc2c(N)nc3ccccc3c2n1CCCCNS(=O)(=O)c1ccccc1 [Example 251, N-[4-(4-amino-2-pentyl-1H-imidazo[4,5-c]quinolin-1-yl)butyl]benzenesulfonamide]
- minimal effective concentration (interferon (α); PBMC): 0.12 µM
- minimal effective concentration ([1]; PBMC): 10 µM

- melting point: 156.4 to 157.7 °C
SMILES: COCCc1nc2c(N)nc3ccccc3c2n1CCCCN1CCCS1(=O)=O [Example 266, 1-[4-(1,1-dioxidoisothiazolidin-2-yl)butyl]-2-(2-methoxyethyl)-1H-imidazo[4,5-c]quinolin-4-amine]

- melting point: 210.7 to 211.6 °C
SMILES: CCS(=O)(=O)NCCCCn1c(C)nc2c(N)nc3ccccc3c21 [Example 269, N-[4-(4-amino-2-methyl-1H-imidazo[4,5-c]quinolin-1-yl)butyl]ethanesulfonamide]

- melting point: 199.7 to 200.7 °C
SMILES: CS(=O)(=O)NCCCCn1c(CC2CC2)nc2c(N)nc3ccccc3c21 [Example 270, N-{4-[4-amino-2-(cyclopropylmethyl)-1H-imidazo[4,5-c]quinolin-1-yl]butyl}methanesulfonamide]
